This note sets out measurements from ChEMBL document CHEMBL1137686, “Synthesis and anticonvulsant activity of new N-[(4-arylpiperazin-1-yl)-alkyl] derivatives of 3-phenyl-pyrrolidine-2,5-dione” (Eur J Med Chem, 2009).

Activity calls are given as the source filed them. The rule behind the calls is not given here. A value given as a limit tells only on which side of the number the result lay.

In data set [1] the test system is Rattus norvegicus. Kind of data set: Anticonvulsant activity in po dosed rat assessed as inhibition of maximal electroshock-induced seizures. Type of data set: functional. A general note: In the maximal electroshock model the usual endpoint is tonic extension of the hind limbs.
Data set [2] concerns Mus musculus. Kind of data set: Anticonvulsant activity in CF1 albino mouse assessed as protection against maximal electroshock-induced seizures at 30 mg/kg, po after 1 hr. The class given is functional.
The subject of data set [3] is Mus musculus. Kind of data set: Anticonvulsant activity in CF1 albino mouse assessed as protection against maximal electroshock-induced seizures at 30 mg/kg, po after 2 hrs. Type of data set: functional.
The subject of data set [4] is Mus musculus. Kind of data set: Anticonvulsant activity in CF1 albino mouse assessed as protection against maximal electroshock-induced seizures at 30 mg/kg, po after 4 hrs. The class given is functional.
Data set [5] deals with Mus musculus. Nature of the data set: Neurotoxicity in CF1 albino mouse assessed as motor impairment at 30 mg/kg, po after 0.25 hrs by rotarod test. The settings on record: in vivo. Type of data set: toxicity, organism-based. Further details: dose 30 mg/kg, route oral.
Data set [6] deals with Mus musculus. Nature of the data set: Neurotoxicity in CF1 albino mouse assessed as motor impairment at 30 mg/kg, po after 0.5 hrs by rotarod test. Type of data set: toxicity, organism-based. Set-up: dose 30 mg/kg, route oral. The settings on record: in vivo.
For data set [7], the system named is Mus musculus. Kind of data set: Neurotoxicity in CF1 albino mouse assessed as motor impairment at 30 mg/kg, po after 1 hr by rotarod test. The class given is toxicity, organism-based. Set-up: dose 30 mg/kg, route oral. The settings on record: in vivo. In general terms: The rotarod test checks motor coordination on a turning rod.
In data set [8] the test system is Mus musculus. Kind of data set: Neurotoxicity in CF1 albino mouse assessed as motor impairment at 30 mg/kg, po after 2 hrs by rotarod test. Type of data set: toxicity, organism-based. As to conditions: in vivo. Set-up: dose 30 mg/kg, route oral.
Data set [9] relates to Mus musculus. Nature of the data set: Neurotoxicity in CF1 albino mouse assessed as motor impairment at 30 mg/kg, po after 4 hrs by rotarod test. The class given is toxicity, organism-based. Further details: dose 30 mg/kg, route oral. The settings on record: in vivo.
Data set [10] deals with Rattus norvegicus. Kind of data set: Anticonvulsant activity against maximal electroshock-induced seizures in po dosed rat assessed as time to peak effect. The class given is functional.
Data set [11] has as its system Rattus norvegicus. Nature of the data set: Anticonvulsant activity in po dosed rat assessed as inhibition of subcutaneous pentylenetetrazole-induced seizures. The class given is functional.
Data set [12] can be described thus: Neurotoxicity in po dosed rat assessed as ability to maintain equilibrium for 1 min on […] by rotarod test. Type of data set: toxicity, organism-based. As to conditions: in vivo.
Data set [13] is filed under the species Rattus norvegicus. Kind of data set: Protective index, ratio of TD50 for neurotoxicity in rat to ED50 for inhibition of maximal electroshock-induced seizures in rat. The class given is functional.
For data set [14], the system named is Mus musculus. Kind of data set: Anticonvulsant activity in ip dosed CF1 albino mouse assessed as inhibition of maximal electroshock-induced seizures after 4 hrs. The class given is functional.
Data set [15] relates to Mus musculus. Kind of data set: Anticonvulsant activity in CF1 albino mouse assessed as inhibition of maximal electroshock-induced seizures at 300 mg/kg, ip after 0.5 hrs. Further details: dose 300 mg/kg. The class given is functional, organism-based.
The subject of data set [16] is Mus musculus. Kind of data set: Neurotoxicity in ip dosed CF1 albino mouse assessed as ability to maintain equilibrium for 1 min on […] after 0.5 hrs by rotarod test. Type of data set: toxicity, organism-based. The settings on record: in vivo.
The test system of data set [17] is Mus musculus. Kind of data set: Neurotoxicity in CF1 albino mouse assessed as ability to maintain equilibrium for 1 min on […] at 300 mg/kg, ip after 4 hrs by rotarod test. Type of data set: toxicity, organism-based. Set-up: dose 300 mg/kg, route intraperitoneal. The settings on record: in vivo.
Data set [18] concerns Mus musculus. Kind of data set: Anticonvulsant activity in CF1 albino mouse assessed as protection against maximal electroshock-induced seizures at 30 mg/kg, po after 0.25 hrs. Type of data set: functional.
Data set [19] concerns Mus musculus. Kind of data set: Anticonvulsant activity in CF1 albino mouse assessed as protection against maximal electroshock-induced seizures at 30 mg/kg, po after 0.5 hrs. Type of data set: functional.
In data set [20] the test system is Mus musculus. Kind of data set: Anticonvulsant activity in CF1 albino mouse assessed as inhibition of maximal electroshock-induced seizures at 300 mg/kg, ip after 4 hrs. The class given is functional, organism-based. Set-up: dose 300 mg/kg.
Data set [21] concerns Mus musculus. Kind of data set: Neurotoxicity in CF1 albino mouse assessed as ability to grasp rotarod at 300 mg/kg, ip after 0.5 hrs by rotarod test. Further details: dose 300 mg/kg, route intraperitoneal. The class given is toxicity, organism-based. The settings on record: in vivo.
The subject of data set [22] is Mus musculus. Kind of data set: Neurotoxicity in CF1 albino mouse assessed as muscle spasm at 300 mg/kg, po after 0.5 hrs by rotarod test. Type of data set: toxicity, organism-based, Muscle tissue. Set-up: dose 300 mg/kg, route oral. The settings on record: in vivo.
Data set [23] concerns Mus musculus. Nature of the data set: Anticonvulsant activity in ip dosed mouse assessed as inhibition of maximal electroshock-induced seizures. Type of data set: functional. The settings on record: Mus musculus, ip.
Data set [24] concerns Mus musculus. Nature of the data set: Anticonvulsant activity in CF1 albino mouse assessed as protection against maximal electroshock-induced seizures at 30 mg/kg, ip after 0.25 hrs. Type of data set: functional.
Data set [25] concerns Mus musculus. Kind of data set: Anticonvulsant activity in CF1 albino mouse assessed as protection against maximal electroshock-induced seizures at 30 mg/kg, ip after 0.5 hrs. Type of data set: functional.
For data set [26], the system named is Mus musculus. Nature of the data set: Anticonvulsant activity in CF1 albino mouse assessed as protection against maximal electroshock-induced seizures at 30 mg/kg, ip after 1 hr. The class given is functional.
Data set [27] deals with Mus musculus. Nature of the data set: Anticonvulsant activity in CF1 albino mouse assessed as protection against maximal electroshock-induced seizures at 30 mg/kg, ip after 2 hrs. Type of data set: functional.
Data set [28] concerns Mus musculus. Nature of the data set: Anticonvulsant activity in CF1 albino mouse assessed as protection against maximal electroshock-induced seizures at 30 mg/kg, ip after 4 hrs. Type of data set: functional.
The test system of data set [29] is Mus musculus. Kind of data set: Neurotoxicity in CF1 albino mouse assessed as motor impairment at 30 mg/kg, ip after 0.25 hrs by rotarod test. The class given is toxicity, organism-based. Further details: dose 30 mg/kg, route intraperitoneal. As to conditions: in vivo.
The subject of data set [30] is Mus musculus. Nature of the data set: Neurotoxicity in CF1 albino mouse assessed as motor impairment at 30 mg/kg, ip after 0.5 hrs by rotarod test. Type of data set: toxicity, organism-based. Set-up: dose 30 mg/kg, route intraperitoneal. As to conditions: in vivo.
For data set [31], the system named is Mus musculus. Kind of data set: Neurotoxicity in CF1 albino mouse assessed as motor impairment at 30 mg/kg, ip after 1 hr by rotarod test. The class given is toxicity, organism-based. Set-up: dose 30 mg/kg, route intraperitoneal. As to conditions: in vivo.
The test system of data set [32] is Mus musculus. Kind of data set: Neurotoxicity in CF1 albino mouse assessed as motor impairment at 30 mg/kg, ip after 2 hrs by rotarod test. As to conditions: in vivo. Further details: dose 30 mg/kg, route intraperitoneal. The class given is toxicity, organism-based.
In data set [33] the test system is Mus musculus. Kind of data set: Neurotoxicity in CF1 albino mouse assessed as motor impairment at 30 mg/kg, ip after 4 hrs by rotarod test. The class given is toxicity, organism-based. Set-up: dose 30 mg/kg, route intraperitoneal. The settings on record: in vivo.
Data set [34] has as its system Mus musculus. Kind of data set: Neurotoxicity in CF1 albino mouse assessed as ability to maintain equilibrium for 1 min on […] at 300 mg/kg, ip after 0.5 hrs by rotarod test. The class given is toxicity, organism-based. Further details: dose 300 mg/kg, route intraperitoneal. The settings on record: in vivo.
Data set [35] concerns Mus musculus. Nature of the data set: Anticonvulsant activity in ip dosed CF1 albino mouse assessed as inhibition of maximal electroshock-induced seizures after 0.5 hrs. Type of data set: functional.

A word on the ED50: it is the dose that gives a 50% effect, or the effect in half of the subjects. The TD50 is the dose at which the toxic effect under study appears in half of the subjects.

Regarding `O=C1CC(c2ccccc2Cl)C(=O)N1CN1CCN(c2cccc(Cl)c2)CC1` (stereo unspecified), the ED50 in the data set with Rattus norvegicus [1] stood at 14.2 mg/kg.

For `O=C1CC(c2ccccc2C(F)(F)F)C(=O)N1CN1CCN(c2ccccc2)CC1` (stereo unspecified), the Activity in the data set with Mus musculus [2] is given as 25%; with Mus musculus [3], 50%; in the data set on Mus musculus [4] it was 75%; in the data set on Mus musculus [5], “Non-toxic”; in the data set with Mus musculus [6], “Non-toxic”; in the data set with Mus musculus [7] it was “Non-toxic”. Also, the Activity result in the data set on Mus musculus [8] was “Non-toxic”; with Mus musculus [9], “Non-toxic”; in the data set on Mus musculus [14] it was 30 mg/kg; in the data set with Mus musculus [16], 300 mg/kg; in the data set on Mus musculus [17], “Non-toxic”; with Mus musculus [18] it was 25%. Besides, the Time with Rattus norvegicus [10] amounted to 8 h. Besides, the figures for the median effective dose (ED50) in the data set on Rattus norvegicus [1] and with Rattus norvegicus [11] were 20.8 mg/kg and more than 250 mg/kg, respectively. Further, the TD50 at 1 min in data set [12] was more than 500 mg/kg. Moreover, the “Ratio TD50/ED50” value in the data set listed under Rattus norvegicus [13] is more than 24.1. Besides, the result in the data set on Mus musculus [15] and in the data set with Mus musculus [19] was inactive.

With `COc1ccccc1N1CCN(CCN2C(=O)CC(c3ccccc3C(F)(F)F)C2=O)CC1` (stereo unspecified), the result with Mus musculus [15] and in the data set on Mus musculus [20] was inactive. Besides, the Activity is 300 mg/kg in the data set with Mus musculus [16], “Non-toxic” with Mus musculus [17], “Toxic” in the data set on Mus musculus [21] and “Toxic” in the data set with Mus musculus [22].

For the compound `O=C1CC2(CCc3ccccc3C2)C(=O)N1CCCN1CCN(c2cccc(C(F)(F)F)c2)CC1` (stereo unspecified), the ED50 in the data set on Mus musculus [23] is 23 mg/kg.

Take `Cc1ccccc1C1CC(=O)N(CCN2CCN(c3cccc(Cl)c3)CC2)C1=O` (stereo unspecified): the Activity is given as 25% in the data set on Mus musculus [2]; 50% in the data set with Mus musculus [4]; “Non-toxic” in the data set with Mus musculus [5]; “Non-toxic” with Mus musculus [6]; “Non-toxic” in the data set with Mus musculus [7]; “Non-toxic” in the data set with Mus musculus [8]. Besides, the Activity entry in the data set with Mus musculus [9], with Mus musculus [29], in the data set with Mus musculus [30], in the data set with Mus musculus [31], with Mus musculus [32] and in the data set on Mus musculus [33] was “Non-toxic” throughout. In addition, the Activity is 100 mg/kg in the data set with Mus musculus [14], “Non-toxic” in the data set with Mus musculus [34] and “Non-toxic” in the data set with Mus musculus [17]. The result in the data set on Mus musculus [3], in the data set on Mus musculus [24], in the data set with Mus musculus [25], in the data set with Mus musculus [26], in the data set with Mus musculus [27] and in the data set on Mus musculus [28] was inactive. In addition, the result in the data set with Mus musculus [15], in the data set with Mus musculus [18] and with Mus musculus [19] was inactive.

Turning to `O=C1CC(c2ccccc2C(F)(F)F)C(=O)N1CCCN1CCN(c2ccccc2)CC1` (stereo unspecified), the Activity with Mus musculus [35] was 300 mg/kg; in the data set on Mus musculus [16], 300 mg/kg; in the data set with Mus musculus [17], “Non-toxic”; in the data set with Mus musculus [21], “Toxic”. In the data set with Mus musculus [20], the result was inactive.
